For orientation: EC50 means the concentration needed to bring the measured effect to its halfway point.

Holding throughout (format): cell-based
Experiment [1] addresses T1, hNPY2R (Homo sapiens, UniProt P49146).
T1 sequence (P49146 1-381): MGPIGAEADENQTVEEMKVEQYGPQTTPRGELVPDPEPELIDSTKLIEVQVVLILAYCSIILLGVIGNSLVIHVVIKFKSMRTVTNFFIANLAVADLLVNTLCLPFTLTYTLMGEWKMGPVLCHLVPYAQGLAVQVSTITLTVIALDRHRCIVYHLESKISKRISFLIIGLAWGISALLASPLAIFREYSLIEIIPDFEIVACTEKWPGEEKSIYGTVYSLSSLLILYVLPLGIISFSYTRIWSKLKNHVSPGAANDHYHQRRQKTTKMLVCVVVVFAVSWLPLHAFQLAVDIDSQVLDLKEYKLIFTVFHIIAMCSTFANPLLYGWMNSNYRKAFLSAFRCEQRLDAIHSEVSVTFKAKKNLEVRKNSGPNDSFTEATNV
Put plainly: cAMP Agonist Assay, HEK293/hNPY2R. Further details: expressed in transfected cells; host or cells: HEK293/hNPY2R (G418 selection). The protocol: In this example, the following materials were used: 384-well plate; Tropix cAMP-Screen Kit; cAMP ELISA System (Applied Biosystems, cat. #T1505; CS 20000); Forskolin (Calbiochem cat. # 344270); cells: HEK293/hNPY2R; growth medium: Dulbecco's modified eagle medium (D-MEM, Gibco); 10% Fetal bovine serum (FBS, Gibco), heat-inactivated; 1% Penicillin/Streptomycin (Pen 10000 unit/mL: Strep […], Gibco); […] G418 (Geneticin, Gibco cat. # 11811-031); and plating medium: DMEM/F12 w/o phenol red (Gibco); 10% FBS (Gibco, cat. # 10082-147), heat-inactivated; 1% Penicillin/Streptomycin (Gibco, cat. # 15140-122); […] G418 (Geneticin, Gibco, cat. # 11811-031).
On the first day, medium was discarded, and the monolayer cells were washed with 10 mL PBS per flask (T225). After decanting with PBS, 5 mL VERSENE (Gibco, cat #1504006) was used to dislodge the cells (5 min @37 C). The flask was gently tapped and the cell suspension was pooled. Each flask was rinsed with 10 mL plating medium and centrifuged at 1000 rpm for 5 min. The suspension was pooled and counted. The suspension was resuspended in plating medium at a density of 2.0×10^5 cells/mL for HEK293/hNPY2R. 50 microliters of cells (HEK293/hNPY2R-10,000 cells/well) were transferred into the 384-well plate using Multi-drop dispenser. The plates were incubated at 37° C. overnight. On the second day, the cells were checked for 75-85% confluence. The media and reagents were allowed to come to room temperature. Before the dilutions were prepared, the stock solution of stimulating compound in dimethyl sulphoxide (DMSO, Sigma, cat #D2650) was allowed to warm up to 32 C for 5-10 min. The dilutions were prepared in DMEM/F12 with 0.5 mM 3-Isobutyl-1-methylxanthine (IBMX, Calbiochem, cat #410957) and 0.5 mg/mL BSA. The final DMSO concentration in the stimulation medium was 1.1% with Forskolin concentration of 5 μM. The cell medium was tapped off with a gentle inversion of the cell plate on a paper towel. 50 μL of stimulation medium was placed per well (each concentration done in four replicates). The plates were incubated at room temperature for 30 min, and the cells were checked under a microscope for toxicity. After 30 minutes of treatment, the stimulation media was discarded and […] of Assay Lysis Buffer (provided in the Tropix kit) was added. The plates were incubated for 45 min @ 37° C. 20 μL of the lysate was transferred from stimulation plates into the pre-coated antibody plates (384-well) from the Tropix kit. 10 μL of AP conjugate and 20 μL of anti-cAMP antibody was added. The plates were incubated at room temperature while shaking for 1 hour. The plates were then washed 5 times with Wash Buffer, 70 μL per well for each wash. The plates were tapped to dry. 30 μL/well of CSPD/Saphire-II RTU substrate/enhancer solution was added and incubated for 45 min @ RT (shake). Signal for 1 sec/well in a Luminometer. (VICTOR-V) was measured.

Experiment [2] addresses T1, hNPY2R. Put plainly: CaFlux Assay (FLIPR), Y2R. Further details: expressed in transfected cells; host or cells: HEK-293 stably transfected with G protein chimera Gαqi9. The protocol:
HEK-293 cells were stably transfected with the G protein chimera Gαqi9 and the hygromycin-B resistance gene were further transfected with the human NPY2 receptor and G418 antibiotic selection. Following selection in both hygromycin-B and G418, individual clones were assayed for their response to PYY. The transfected cells were cultured in DMEM medium supplemented with 10% fetal bovine serum, 50 μg/mL hygromycin-B, 2 mM glutamine, 100 U/mL penicillin, 100 μg/mL streptomycin and 250 μg/mL G418. Cells are harvested with trypsin-EDTA and counted using ViaCount reagent. The cell suspension volume is adjusted to 4.8×10^5 cells/mL with complete growth media. Aliquots of 25 μL are dispensed into 384 well Poly-D Lysine coated black/clear microplates (Falcon) and the microplates were placed in a 37° C. CO2 incubator overnight. Loading Buffer (Calcium-3 Assay Kit, Molecular Devices) was prepared by dissolving the contents of one vial (Express Kit) into […] Hank's Balanced Salt Solution containing 20 mM HEPES and 5 mM probenecid. Aliquots of 25 μL of diluted dye were dispensed into the cell plates and the plates are then incubated for 1 hour at 37° C. During the incubation, test compounds were prepared at 3.5× the desired concentration in HBSS (20 mM HEPES)/0.05% BSA/1% DMSO and transferred to a 384-well plate for use on FLIPR. After incubation, both the cell and compound plates were brought to the FLIPR and 20 μL of the diluted compounds were transferred to the cell plates by the FLIPR. During the assay, fluorescence readings were taken simultaneously from all 384 wells of the cell plate every 1.5 seconds. Five readings were taken to establish a stable baseline, and then 20 μL of sample was rapidly (30 μL/sec) and simultaneously added to each well of the cell plate. The fluorescence was continuously monitored before, during and after sample addition for a total elapsed time of 100 seconds. Responses (increase in peak fluorescence) in each well following addition were determined. The initial fluorescence reading from each well, prior to ligand stimulation, was used as a zero baseline value for the data from that well. The responses are expressed as % of maximal response of the positive control.

A further experiment addresses Y4R (Homo sapiens, UniProt P50391). Briefly: CaFlux Assay (FLIPR), Y4R.
The target of the next experiment is T2, Y5R (Homo sapiens, UniProt Q15761).
T2 sequence (Q15761 1-445): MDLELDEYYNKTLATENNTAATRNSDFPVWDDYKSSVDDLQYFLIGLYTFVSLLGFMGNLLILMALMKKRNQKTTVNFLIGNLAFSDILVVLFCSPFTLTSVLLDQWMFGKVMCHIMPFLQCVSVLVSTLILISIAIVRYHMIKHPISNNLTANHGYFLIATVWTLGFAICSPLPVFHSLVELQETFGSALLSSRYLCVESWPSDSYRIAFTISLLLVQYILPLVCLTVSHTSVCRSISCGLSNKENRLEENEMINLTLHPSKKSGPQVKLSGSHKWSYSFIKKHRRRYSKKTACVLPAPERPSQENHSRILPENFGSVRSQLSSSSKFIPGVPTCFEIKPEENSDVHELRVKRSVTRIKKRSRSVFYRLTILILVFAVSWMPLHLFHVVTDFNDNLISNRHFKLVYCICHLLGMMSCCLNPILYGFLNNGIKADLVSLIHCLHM
Briefly: CaFlux Assay (FLIPR), Y5R.

For a further experiment, the target named is T3, Y1R (Homo sapiens, UniProt P25929).
T3 sequence (P25929 1-384): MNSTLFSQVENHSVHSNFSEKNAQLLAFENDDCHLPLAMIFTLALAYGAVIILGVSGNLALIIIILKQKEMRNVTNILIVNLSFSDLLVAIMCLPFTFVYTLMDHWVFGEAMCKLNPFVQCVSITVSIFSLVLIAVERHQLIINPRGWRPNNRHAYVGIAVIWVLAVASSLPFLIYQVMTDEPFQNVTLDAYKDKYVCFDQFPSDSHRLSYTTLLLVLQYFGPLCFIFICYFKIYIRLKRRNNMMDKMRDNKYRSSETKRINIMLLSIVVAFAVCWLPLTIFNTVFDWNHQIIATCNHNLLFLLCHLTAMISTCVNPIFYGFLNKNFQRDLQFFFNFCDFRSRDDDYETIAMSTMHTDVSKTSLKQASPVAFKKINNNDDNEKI
Briefly: CaFlux Assay (FLIPR), Y1R.

Sequence of Y4R (P50391 whole entry): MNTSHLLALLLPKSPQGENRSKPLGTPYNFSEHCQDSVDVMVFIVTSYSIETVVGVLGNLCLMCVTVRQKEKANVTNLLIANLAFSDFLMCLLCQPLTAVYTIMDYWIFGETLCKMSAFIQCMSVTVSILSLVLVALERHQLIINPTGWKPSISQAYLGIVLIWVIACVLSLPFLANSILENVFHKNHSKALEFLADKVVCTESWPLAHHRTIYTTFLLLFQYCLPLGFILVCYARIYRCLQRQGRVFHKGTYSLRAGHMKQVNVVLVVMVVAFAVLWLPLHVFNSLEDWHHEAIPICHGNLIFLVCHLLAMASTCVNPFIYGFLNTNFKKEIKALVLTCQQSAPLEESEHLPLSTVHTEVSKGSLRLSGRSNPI

For `CCCCCCCCCCCCCCCC(=O)NCCOCCNC(=O)CCC(=O)NCCCC[C@H](NC(=O)[C@@H](NC(=O)CCOCCOCCOCCOCCOCCOCCOCCOCCOCCOCCOCCOCCOCCOCCOCCOCCOCCOCCOCCOCCOCCOCCOCCOC)[C@@H](C)CC)C(=O)N1CCN(c2ccc3ncn(CC(=O)N[C@@H](CCCNC(=N)N)C(=O)N[C@@H](Cc4c[nH]cn4)C(=O)N[C@@H](Cc4ccc(O)cc4)C(=O)N[C@@H](CC(C)C)C(=O)N[C@@H](CC(N)=O)C(=O)N[C@@H](Cc4c[nH]c5ccccc45)C(=O)N[C@H](C(=O)N[C@H](C(=O)N[C@@H](CCCNC(=N)N)C(=O)N[C@@H](CCC(N)=O)C(=O)N(C)[C@@H](CCCNC(=N)N)C(=O)N[C@@H](Cc4ccc(O)cc4)C(N)=O)[C@@H](C)O)C(C)C)c(=O)c3c2)CC1` [Example 15], the EC50 at hNPY2R [1] is 0.06 nM; at hNPY2R [2], 0.084 nM; at Y4R it was greater than 5000 nM; on Y5R, 248 nM; on Y1R, greater than 5000 nM. For the same compound, the “Y5R FLIPR agonist character (partial agonist mark)” value on Y5R (FLIPR) is “P.A”.
As to `CCCCCCCCCCCCCCCC(=O)NCCOCCNC(=O)CCC(=O)NCCCC[C@H](NC(=O)[C@@H](NC(=O)CCOCCOCCOCCOCCOCCOCCOCCOCCOCCOCCOCCOCCOCCOCCOCCOCCOCCOCCOCCOCCOCCOCCOCCOC)[C@@H](C)CC)C(=O)N1CCN(c2ccc3ncn(CC(=O)N[C@@H](CCCNC(N)=O)C(=O)N[C@@H](Cc4c[nH]cn4)C(=O)N[C@@H](Cc4ccc(O)cc4)C(=O)N[C@@H](CC(C)C)C(=O)N[C@@H](CC(N)=O)C(=O)N[C@@H](Cc4c[nH]c5ccccc45)C(=O)N[C@H](C(=O)N[C@H](C(=O)N[C@@H](CCCNC(=N)N)C(=O)N[C@@H](CCC(N)=O)C(=O)N(C)[C@@H](CCCNC(=N)N)C(=O)N[C@@H](Cc4ccc(O)cc4)C(N)=O)[C@@H](C)O)C(C)C)c(=O)c3c2)CC1` [Example 16], the EC50 at hNPY2R [1] is 0.09 nM; on hNPY2R [2], 0.059 nM; at Y4R it was greater than 5000 nM; on Y5R, 1360 nM; on Y1R, greater than 5000 nM.
For the compound `CC[C@H](C)[C@H](NC(=O)CCCCCNC(=O)CCOCCOCCOCCOCCOCCOCCOCCOC)C(=O)N[C@@H](CCCCN)C(=O)N1CCN(c2ccc3ncn(CC(=O)N[C@@H](CCCNC(=N)N)C(=O)N[C@@H](Cc4c[nH]cn4)C(=O)N[C@@H](Cc4ccc(O)cc4)C(=O)N[C@@H](CC(C)C)C(=O)N[C@@H](CC(N)=O)C(=O)N[C@@H](Cc4c[nH]c5ccccc45)C(=O)N[C@H](C(=O)N[C@H](C(=O)N[C@@H](CCCNC(=N)N)C(=O)N[C@@H](CCC(N)=O)C(=O)N(C)[C@@H](CCCNC(=N)N)C(=O)N[C@@H](Cc4ccc(O)cc4)C(N)=O)[C@@H](C)O)C(C)C)c(=O)c3c2)CC1` [Example 17], the 50% effective concentration (EC50) on hNPY2R [1] was 1.4 nM; at hNPY2R [2], 0.479 nM; at Y4R, greater than 6000 nM; on Y5R, greater than 6000 nM; at Y1R it was greater than 6000 nM.
Turning to `CC[C@H](C)[C@H](NC(=O)CCCCCNC(=O)CCOCCOCCOCCOCCOCCOCCOCCOCCOCCOCCOCCOC)C(=O)N[C@@H](CCCCN)C(=O)N1CCN(c2ccc3ncn(CC(=O)N[C@@H](CCCNC(=N)N)C(=O)N[C@@H](Cc4c[nH]cn4)C(=O)N[C@@H](Cc4ccc(O)cc4)C(=O)N[C@@H](CC(C)C)C(=O)N[C@@H](CC(N)=O)C(=O)N[C@@H](Cc4c[nH]c5ccccc45)C(=O)N[C@H](C(=O)N[C@H](C(=O)N[C@@H](CCCNC(=N)N)C(=O)N[C@@H](CCC(N)=O)C(=O)N(C)[C@@H](CCCNC(=N)N)C(=O)N[C@@H](Cc4ccc(O)cc4)C(N)=O)[C@@H](C)O)C(C)C)c(=O)c3c2)CC1` [Example 18], the EC50 at hNPY2R [1] is 0.9 nM; at hNPY2R [2], 0.357 nM; on Y4R, greater than 6000 nM; on Y5R, greater than 6000 nM; on Y1R it was greater than 6000 nM.
